Results taken from patent US8802597B2, “Herbicidal pyrimidines” (E I du Pont de Nemours and Company, priority 2003, dated 2014).

Experiments:
Assay in all cases: Test C pre/postemergence
Format in all cases: in vivo
[1] = system: woolly cupgrass (Eriochloa villosa); details: for Plant response rating, Cupgrass, Woolly: Preemergence
Procedure, shortened: (§1)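 Greenhouse herbicide screen, visual readout. Compound in solvent/surfactant applied preemergence at planting or postemergence to 1- to 4-leaf plants; assessed at 12–14 days on a 0–100 control scale.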

[2] = system: pigweed (Amaranthus retroflexus); details: for Plant response rating, Pigweed: Preemergence, scale 0 to 100, 0 no effect, 100 complete control
Procedure, shortened: as §1

[3] = system: eastern black nightshade (Solanum ptycanthum); details: Preemergence, scale 0 to 100, 0 no effect, 100 complete control
Procedure, shortened: as §1

[4] = system: morningglory (Ipomoea coccinea); details: for Plant response rating, Morningglory: Preemergence
Procedure, shortened: as §1

[5] = system: bermudagrass (Cynodon dactylon); details: for Plant response rating (scale of 0 to 100), Bermudagrass / Bermudagrass plant response rating: Postemergence; for Bermudagrass plant response rating: scale 0 to 100 (0 no effect, 100 complete control); for Plant response rating, Bermudagrass: Preemergence
Procedure, shortened: as §1

corn (Zea mays) = details: for Plant response rating, Corn: Preemergence
Procedure, shortened: as §1

kochia (Kochia scoparia) = details: for Plant response rating, Kochia: Preemergence
Procedure, shortened: as §1

[6] = system: johnsongrass (Sorghum halepense); details: for Plant response rating, Johnsongrass: Preemergence
Procedure, shortened: as §1

[7] = system: cocklebur (Xanthium strumarium); details: for Plant response rating, Cocklebur: Preemergence
Procedure, shortened: as §1

[8] = system: common ragweed (Ambrosia elatior); details: for Plant response rating, Ragweed: Preemergence, scale 0 to 100, 0 no effect, 100 complete control
Procedure, shortened: as §1

[9] = system: common (oilseed) sunflower (Helianthus annuus); details: Preemergence, scale 0 to 100, 0 no effect, 100 complete control
Procedure, shortened: as §1

[10] = system: Surinam grass (Brachiaria decumbens); details: for Plant response rating (scale of 0 to 100), Surinam Grass: Postemergence; for Plant response rating, Surinam Grass: Preemergence, scale 0 to 100, 0 no effect, 100 complete control
Procedure, shortened: as §1

[11] = Postemergence, 125 g ai/ha, scale 0 to 100 (0 no effect, 100 complete control)
[12] = 16 g ai/ha, scale 0 to 100, 0 no effect, 100 complete control
[13] = 31 g ai/ha, scale 0 to 100, 0 no effect, 100 complete control
[14] = 62 g ai/ha, scale 0 to 100, 0 no effect, 100 complete control

CCCCOC(=O)c1nc(C2CC2)nc(N)c1Cl [Compound 76]
Plant response rating (scale of 0 to 100), Cupgrass, Woolly ([1]; Postemergence, 16 g ai/ha): 55
Plant response rating (scale of 0 to 100), Cupgrass, Woolly ([1]; Postemergence, 31 g ai/ha): 60
Plant response rating (scale of 0 to 100), Cupgrass, Woolly ([1]; Postemergence, 62 g ai/ha): 80
Cupgrass, Woolly plant response rating [1, 11]: 95
Plant response rating, Cupgrass, Woolly [1, 12]: 0
Plant response rating, Cupgrass, Woolly [1, 13]: 0
Plant response rating, Cupgrass, Woolly [1, 14]: 20
Plant response rating, Cupgrass, Woolly ([1]; 125 g ai/ha, scale 0 to 100): 50
Plant response rating (scale of 0 to 100), Pigweed ([2]; Postemergence, 16 g ai/ha): 85
Plant response rating (scale of 0 to 100), Pigweed ([2]; Postemergence, 31 g ai/ha): 95
Plant response rating (scale of 0 to 100), Pigweed ([2]; Postemergence, 62 g ai/ha): 100
Pigweed plant response rating [2, 11]: 100
Plant response rating, Pigweed ([2]; 16 g ai/ha): 60
Plant response rating, Pigweed ([2]; 31 g ai/ha): 80
Plant response rating, Pigweed ([2]; 62 g ai/ha): 80
Plant response rating, Nightshade ([3]; 16 g ai/ha): 30
Plant response rating, Nightshade ([3]; 31 g ai/ha): 40
Plant response rating, Nightshade ([3]; 62 g ai/ha): 60
Plant response rating, Nightshade [3]: 100
Plant response rating (scale of 0 to 100), Morningglory ([4]; Postemergence, 16 g ai/ha): 95
Plant response rating (scale of 0 to 100), Morningglory ([4]; Postemergence, 31 g ai/ha): 95
Plant response rating (scale of 0 to 100), Morningglory ([4]; Postemergence, 62 g ai/ha): 95
Morningglory plant response rating [4, 11]: 100
Plant response rating, Morningglory [4, 12]: 40
Plant response rating, Morningglory [4, 13]: 60
Plant response rating, Morningglory [4, 14]: 100
Plant response rating, Morningglory ([4]; 125 g ai/ha, scale 0 to 100): 100
Plant response rating (scale of 0 to 100), Bermudagrass ([5]; 16 g ai/ha): 15
Plant response rating (scale of 0 to 100), Bermudagrass ([5]; 31 g ai/ha): 70
Bermudagrass plant response rating ([5]; 62 g ai/ha): 75
Bermudagrass plant response rating ([5]; 125 g ai/ha): 75
Plant response rating, Bermudagrass [5, 12]: 0
Plant response rating, Bermudagrass [5, 13]: 0
Plant response rating, Bermudagrass [5, 14]: 0
Plant response rating, Bermudagrass ([5]; 125 g ai/ha, scale 0 to 100): 0
Plant response rating (scale of 0 to 100), Corn (corn (Zea mays); Postemergence, 16 g ai/ha): 10
Plant response rating (scale of 0 to 100), Corn (corn (Zea mays); Postemergence, 31 g ai/ha): 35
Plant response rating (scale of 0 to 100), Corn (corn (Zea mays); Postemergence, 62 g ai/ha): 55
Corn plant response rating (corn (Zea mays); [11]): 70
Plant response rating, Corn (corn (Zea mays); [12]): 0
Plant response rating, Corn (corn (Zea mays); [13]): 0
Plant response rating, Corn (corn (Zea mays); [14]): 35
Plant response rating, Corn (corn (Zea mays); 125 g ai/ha, scale 0 to 100): 45
Plant response rating (scale of 0 to 100), Kochia (kochia (Kochia scoparia); Postemergence, 16 g ai/ha): 90
Plant response rating (scale of 0 to 100), Kochia (kochia (Kochia scoparia); Postemergence, 31 g ai/ha): 95
Plant response rating (scale of 0 to 100), Kochia (kochia (Kochia scoparia); Postemergence, 62 g ai/ha): 95
Kochia plant response rating (kochia (Kochia scoparia); [11]): 100
Plant response rating, Kochia (kochia (Kochia scoparia); [12]): 70
Plant response rating, Kochia (kochia (Kochia scoparia); [13]): 90
Plant response rating, Kochia (kochia (Kochia scoparia); [14]): 95
Plant response rating, Kochia (kochia (Kochia scoparia); 125 g ai/ha, scale 0 to 100): 100
Plant response rating (scale of 0 to 100), Johnsongrass ([6]; Postemergence, 16 g ai/ha): 25
Plant response rating (scale of 0 to 100), Johnsongrass ([6]; Postemergence, 31 g ai/ha): 65
Johnsongrass plant response rating [6, 11]: 95
Plant response rating, Johnsongrass [6, 12]: 0
Plant response rating, Johnsongrass [6, 13]: 0
Plant response rating, Johnsongrass [6, 14]: 20
Plant response rating, Johnsongrass ([6]; 125 g ai/ha, scale 0 to 100): 50
Plant response rating (scale of 0 to 100), Cocklebur ([7]; Postemergence, 16 g ai/ha): 100
Plant response rating (scale of 0 to 100), Cocklebur ([7]; Postemergence, 31 g ai/ha): 100
Plant response rating (scale of 0 to 100), Cocklebur ([7]; Postemergence, 62 g ai/ha): 100
Cocklebur plant response rating [7, 11]: 100
Plant response rating, Cocklebur [7, 12]: 65
Plant response rating, Cocklebur [7, 13]: 90
Plant response rating, Cocklebur [7, 14]: 90
Plant response rating, Cocklebur ([7]; 125 g ai/ha, scale 0 to 100): 90
Plant response rating (scale of 0 to 100), Ragweed ([8]; Postemergence, 16 g ai/ha): 80
Plant response rating (scale of 0 to 100), Ragweed ([8]; Postemergence, 31 g ai/ha): 90
Plant response rating (scale of 0 to 100), Ragweed ([8]; Postemergence, 62 g ai/ha): 95
Ragweed plant response rating [8, 11]: 100
Plant response rating, Ragweed ([8]; 16 g ai/ha): 50
Plant response rating, Ragweed ([8]; 31 g ai/ha): 60
Plant response rating, Ragweed ([8]; 62 g ai/ha): 80
Plant response rating, Ragweed [8]: 100
Plant response rating, Sunflower ([9]; 16 g ai/ha): 50
Plant response rating, Sunflower ([9]; 31 g ai/ha): 85
Plant response rating, Sunflower ([9]; 62 g ai/ha): 100
Plant response rating (scale of 0 to 100), Surinam Grass ([10]; 16 g ai/ha): 60
Plant response rating (scale of 0 to 100), Surinam Grass ([10]; 31 g ai/ha): 70
Plant response rating (scale of 0 to 100), Surinam Grass ([10]; 62 g ai/ha): 95
Plant response rating, Surinam Grass ([10]; 16 g ai/ha): 0
Plant response rating, Surinam Grass ([10]; 31 g ai/ha): 0
Plant response rating, Surinam Grass ([10]; 62 g ai/ha): 0
